In patent US20230340011A1 (Asteroid Therapeutics, priority 2022, published 2023):

What was measured:
LXRβ = LXRβ (Homo sapiens (Human), UniProt P55055); assay: In vitro assay LXRβ: PathHunter NHR CHO cells, LXRβ / Steroid Receptor Co-activator Peptide enzyme fragment complementation; format: cell-based; settings: PathHunter NHR CHO cells, full-length human LXRβ and SRCP, chemiluminescent signal; read-out: LXRβ PPI
How it was run: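 Co-activator recruitment measured by chemiluminescence after signal generation. The CHO line carries full-length human LXRβ tagged with ProLink and an SRCP–enzyme acceptor fusion in the nucleus; cells sat overnight at 37° C before testing, in charcoal-dextran filtered serum medium with 1% final vehicle.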

SREBP-2 = SREBP-2 (Homo sapiens (Human), UniProt Q12772); assay: In vitro assay SREBP-2: PathHunter U2OS SREBP-2 Nuclear Translocation Cell Line, U18666A-stimulated; format: cell-based; settings: PathHunter U2OS SREBP-2 nuclear translocation cells, U18666A 10 μM, overnight (16 hours)

Sequence of LXRβ (P55055 whole entry, the tested form may be a part): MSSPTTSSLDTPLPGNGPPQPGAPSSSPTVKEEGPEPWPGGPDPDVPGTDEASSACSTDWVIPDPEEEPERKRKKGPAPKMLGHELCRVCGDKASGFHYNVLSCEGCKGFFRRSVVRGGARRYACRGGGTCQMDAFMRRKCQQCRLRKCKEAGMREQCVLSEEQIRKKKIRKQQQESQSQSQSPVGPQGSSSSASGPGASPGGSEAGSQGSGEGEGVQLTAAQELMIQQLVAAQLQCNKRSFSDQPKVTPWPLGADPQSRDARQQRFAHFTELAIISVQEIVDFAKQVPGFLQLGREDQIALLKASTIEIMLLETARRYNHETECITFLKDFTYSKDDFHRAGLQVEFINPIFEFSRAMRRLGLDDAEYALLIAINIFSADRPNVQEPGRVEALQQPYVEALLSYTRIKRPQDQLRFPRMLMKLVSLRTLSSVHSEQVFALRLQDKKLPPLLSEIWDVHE

Compound	EC50 (LXRβ)	IC50 (SREBP-2)
C[C@H](CCC(=O)N1CCC(C)(C(N)=O)CC1)[C@H]1CC[C@H]2[C@@H]3CC=C4C[C@@H](O)CC[C@]4(C)[C@H]3CC[C@]12C [Example 85, 1-((R)-4-((3S,8S,9S,10R,13R,14S,17R)-3-hydroxy-10,13-dimethyl-2,3,4,7,8,9,10,11,12,13,14,15,16,17-tetradecahydro-1H-cyclopenta[a]phenanthren-17-yl)pentanoyl)-4-methylpiperidine-4-carboxamide]	> 10000 nM	< 250 nM
CNC(=O)C1(C)CCN(C(=O)CC[C@@H](C)[C@H]2CC[C@H]3[C@@H]4CC=C5C[C@@H](O)CC[C@]5(C)[C@H]4CC[C@]23C)CC1 [Example 86, 1-((R)-4-((3S,8S,9S,10R,13R,14S,17R)-3-hydroxy-10,13-dimethyl-2,3,4,7,8,9,10,11,12,13,14,15,16,17-tetradecahydro-1H-cyclopenta[a]phenanthren-17-yl)pentanoyl)-N,4-dimethylpiperidine-4-carboxamide]	> 10000 nM	250 to 1000 nM
C[C@H](CCC(=O)N1CCC(C)(C(=O)N(C)C)CC1)[C@H]1CC[C@H]2[C@@H]3CC=C4C[C@@H](O)CC[C@]4(C)[C@H]3CC[C@]12C [Example 87, 1-((R)-4-((3S,8S,9S,10R,13R,14S,17R)-3-hydroxy-10,13-dimethyl-2,3,4,7,8,9,10,11,12,13,14,15,16,17-tetradecahydro-1H-cyclopenta[a]phenanthren-17-yl)pentanoyl)-N,N,4-trimethylpiperidine-4-carboxamide]	> 10000 nM	250 to 1000 nM
C[C@H](CCC(=O)N1CCC2(CCCO2)CC1)[C@H]1CC[C@H]2[C@@H]3CC=C4C[C@@H](O)CC[C@]4(C)[C@H]3CC[C@]12C [Example 88, (R)-4-((3S,8S,9S,10R,13R,14S,17R)-3-hydroxy-10,13-dimethyl-2,3,4,7,8,9,10,11,12,13,14,15,16,17-tetradecahydro-1H-cyclopenta[a]phenanthren-17-yl)-1-(1-oxa-δ-azaspiro[4.5]decan-δ-yl)pentan-1-one]	> 10000 nM	< 250 nM
C[C@H](CCC(=O)N1CCC2(CCOC2)CC1)[C@H]1CC[C@H]2[C@@H]3CC=C4C[C@@H](O)CC[C@]4(C)[C@H]3CC[C@]12C [Example 89, (R)-4-((3S,8S,9S,10R,13R,14S,17R)-3-hydroxy-10,13-dimethyl-2,3,4,7,8,9,10,11,12,13,14,15,16,17-tetradecahydro-1H-cyclopenta[a]phenanthren-17-yl)-1-(2-oxa-δ-azaspiro[4.5]decan-δ-yl)pentan-1-one]	> 10000 nM	< 250 nM
C[C@H](CCC(=O)N1CCC(O)(c2ccccc2)CC1)[C@H]1CC[C@H]2[C@@H]3CC=C4C[C@@H](O)CC[C@]4(C)[C@H]3CC[C@]12C [Example 91, (R)-4-((3S,8S,9S,10R,13R,14S,17R)-3-hydroxy-10,13-dimethyl-2,3,4,7,8,9,10,11,12,13,14,15,16,17-tetradecahydro-1H-cyclopenta[a]phenanthren-17-yl)-1-(4-hydroxy-4-phenylpiperidin-1-yl) pentan-1-one]	> 10000 nM	< 250 nM
COC1CCN(C(=O)CC[C@@H](C)[C@H]2CC[C@H]3[C@@H]4CC=C5C[C@@H](O)CC[C@]5(C)[C@H]4CC[C@]23C)CC1 [Example 94, (R)-4-((3S,8S,9S,10R,13R,14S,17R)-3-hydroxy-10,13-dimethyl-2,3,4,7,8,9,10,11,12,13,14,15,16,17-tetradecahydro-1H-cyclopenta[a]phenanthren-17-yl)-1-(4-methoxypiperidin-1-yl)pentan-1-one]	250 to 1000 nM	< 250 nM
C[C@H](CCC(=O)N1CC(C(O)(C(F)(F)F)C(F)(F)F)C1)[C@H]1CC[C@H]2[C@@H]3CC=C4C[C@@H](O)CC[C@]4(C)[C@H]3CC[C@]12C [Example 97, (R)-1-(3-(1,1,1,3,3,3-hexafluoro-2-hydroxypropan-2-yl)azetidin-1-yl)-4-((3S,8S,9S,10R,13R,14S,17R)-3-hydroxy-10,13-dimethyl-2,3,4,7,8,9,10,11,12,13,14,15,16,17-tetradecahydro-1H-cyclopenta[a]phenanthren-17-yl) pentan-1-one]	> 10000 nM	< 250 nM
C[C@H](CCC(=O)N1CC[C@@H](C(O)(C(F)(F)F)C(F)(F)F)C1)[C@H]1CC[C@H]2[C@@H]3CC=C4C[C@@H](O)CC[C@]4(C)[C@H]3CC[C@]12C [Example 98, (R)-1-((R)-3-(1,1,1,3,3,3-hexafluoro-2-hydroxypropan-2-yl)pyrrolidin-1-yl)-4-((3S,8S,9S,10R,13R,14S,17R)-3-hydroxy-10,13-dimethyl-2,3,4,7,8,9,10,11,12,13,14,15,16,17-tetradecahydro-1H-cyclopenta[a]phenanthren-17-yl)pentan-1-one]	> 10000 nM	< 250 nM
C[C@H](CCC(=O)N1CCC(C(O)(C(F)(F)F)C(F)(F)F)CC1)[C@H]1CC[C@H]2[C@@H]3CC=C4C[C@@H](O)CC[C@]4(C)[C@H]3CC[C@]12C [Example 99, (R)-1-(4-(1,1,1,3,3,3-hexafluoro-2-hydroxypropan-2-yl)piperidin-1-yl)-4-((3S,8S,9S,10R,13R,14S,17R)-3-hydroxy-10,13-dimethyl-2,3,4,7,8,9,10,11,12,13,14,15,16,17-tetradecahydro-1H-cyclopenta[a]phenanthren-17-yl)pentan-1-one]	> 10000 nM	< 250 nM
C[C@H](CCC(=O)N1CC2(CC(O)C2)C1)[C@H]1CC[C@H]2[C@@H]3CC=C4C[C@@H](O)CC[C@]4(C)[C@H]3CC[C@]12C [Example 100, (R)-4-((3S,8S,9S,10R,13R,14S,17R)-3-hydroxy-10,13-dimethyl-2,3,4,7,8,9,10,11,12,13,14,15,16,17-tetradecahydro-1H-cyclopenta[a]phenanthren-17-yl)-1-(6-hydroxy-2-azaspiro[3.3]heptan-2-yl)pentan-1-one]	> 10000 nM	< 250 nM
C[C@H](CCC(=O)N1CC2(C1)CC(C)(O)C2)[C@H]1CC[C@H]2[C@@H]3CC=C4C[C@@H](O)CC[C@]4(C)[C@H]3CC[C@]12C [Example 101, (R)-4-((3S,8S,9S,10R,13R,14S,17R)-3-hydroxy-10,13-dimethyl-2,3,4,7,8,9,10,11,12,13,14,15,16,17-tetradecahydro-1H-cyclopenta[a]phenanthren-17-yl)-1-(6-hydroxy-6-methyl-2-azaspiro[3.3]heptan-2-yl)pentan-1-one]	> 10000 nM	< 250 nM
CCC1(O)CC2(CN(C(=O)CC[C@@H](C)[C@H]3CC[C@H]4[C@@H]5CC=C6C[C@@H](O)CC[C@]6(C)[C@H]5CC[C@]34C)C2)C1 [Example 102, (R)-1-(6-ethyl-6-hydroxy-2-azaspiro[3.3]heptan-2-yl)-4-((3S,8S,9S,10R,13R,14S,17R)-3-hydroxy-10,13-dimethy12,3,4,7,8,9,10,11,12,13,14,15,16,17-tetradecahydro-1H-cyclopenta[a]phenanthren-17-yl)pentan-1-one]	> 10000 nM	< 250 nM
C[C@H](CCC(=O)N1CCC[C@H](O)C1)[C@H]1CC[C@H]2[C@@H]3CC=C4C[C@@H](O)CC[C@]4(C)[C@H]3CC[C@]12C [Example 103, (R)-4-((3S,8S,9S,10R,13R,14S,17R)-3-hydroxy-10,13-dimethyl-2,3,4,7,8,9,10,11,12,13,14,15,16,17-tetradecahydro-1H-cyclopenta[a]phenanthren-17-yl)-1-((S)-3-hydroxypiperidin-1-yl)pentan-1-one]	250 to 1000 nM	< 250 nM
